Reference: article PMC9640540, “An LH1–RC photocomplex from an extremophilic phototroph provides insight into origins of two photosynthesis proteins” (Communications Biology, 2022)

Target: T1, reaction center (RC) of the LH1–RC complex (Rhodopila globiformis, UniProt A0A2S6NEG7+A0A2S6NEP5)
T1 construct: gene CCS01_15140; native LH1-RC core complex purified from chromatophores (LDAO, then DDM); closed LH1 ring; with Reaction center protein H chain; Photosynthetic reaction center cytochrome c subunit
Test: cryo-EM structure, […] Å
Assay type: binding

T1 sequence (A0A2S6NEG7 1-275): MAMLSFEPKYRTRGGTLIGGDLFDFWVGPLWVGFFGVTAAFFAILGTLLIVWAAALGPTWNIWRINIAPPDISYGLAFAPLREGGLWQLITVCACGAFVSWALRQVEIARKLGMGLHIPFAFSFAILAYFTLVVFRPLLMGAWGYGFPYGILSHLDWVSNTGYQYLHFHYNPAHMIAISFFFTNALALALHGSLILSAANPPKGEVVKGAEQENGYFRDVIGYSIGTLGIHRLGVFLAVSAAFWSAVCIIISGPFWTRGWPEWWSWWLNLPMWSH
T1 sequence (A0A2S6NEP5 1-326): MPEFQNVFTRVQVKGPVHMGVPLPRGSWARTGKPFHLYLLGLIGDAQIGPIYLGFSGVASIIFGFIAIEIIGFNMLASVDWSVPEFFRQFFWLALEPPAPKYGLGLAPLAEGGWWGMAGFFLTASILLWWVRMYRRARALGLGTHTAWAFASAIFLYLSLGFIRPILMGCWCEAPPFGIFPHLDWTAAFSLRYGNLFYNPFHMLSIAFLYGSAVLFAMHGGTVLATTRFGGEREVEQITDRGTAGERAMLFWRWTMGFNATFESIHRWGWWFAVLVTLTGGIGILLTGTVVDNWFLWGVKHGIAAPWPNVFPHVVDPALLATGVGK
T1 sequence (A0A2S6MZS1 1-258 partner): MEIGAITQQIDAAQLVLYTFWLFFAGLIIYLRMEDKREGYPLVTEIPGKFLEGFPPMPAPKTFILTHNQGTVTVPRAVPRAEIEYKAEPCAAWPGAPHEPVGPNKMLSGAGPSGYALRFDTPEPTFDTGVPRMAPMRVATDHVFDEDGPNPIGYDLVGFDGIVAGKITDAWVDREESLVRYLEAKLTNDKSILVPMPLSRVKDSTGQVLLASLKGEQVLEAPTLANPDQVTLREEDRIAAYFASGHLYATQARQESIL
T1 sequence (A0A2S6NEK5 1-344 partner): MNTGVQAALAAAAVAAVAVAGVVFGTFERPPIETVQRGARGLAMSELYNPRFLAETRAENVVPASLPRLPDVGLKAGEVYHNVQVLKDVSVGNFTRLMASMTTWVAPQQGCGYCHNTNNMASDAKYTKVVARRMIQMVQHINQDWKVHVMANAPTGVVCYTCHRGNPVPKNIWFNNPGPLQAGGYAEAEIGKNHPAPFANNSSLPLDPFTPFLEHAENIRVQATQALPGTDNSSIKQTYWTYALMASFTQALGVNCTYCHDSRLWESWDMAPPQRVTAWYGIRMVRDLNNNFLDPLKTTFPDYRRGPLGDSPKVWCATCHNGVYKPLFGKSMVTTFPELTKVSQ

CC[C@H]1c2cc3[nH]c4c(c3C)C(=O)[C@H](C(=O)OC)c4c3nc(cc4[nH]c(cc(n2)[C@@H]1C)c(C(C)=O)c4C)[C@@H](C)[C@@H]3CCC(=O)OC/C=C(\C)CCC[C@H](C)CCC[C@H](C)CCCC(C)C [BPhe a]
cryo-EM structure, 2.24 Å: BPhe a, magenta sticks
